Here are results for one molecule from article PMC6934184, “Selective DNA-PKcs inhibition extends the therapeutic index of localized radiotherapy and chemotherapy” (The Journal of Clinical Investigation, 2019).

This assay addresses T1, STK17B (DRAK2) (Homo sapiens, UniProt O94768).
T1 construct: purchased Thermo Fisher Scientific (Life Technologies) SelectScreen
In words: SelectScreen LanthaScreen. The format is binding. The following applies: read-out: % displacement. The method, boiled down:
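SelectScreen broad panel; activity (Z'LYTE, Adapta) plus binding formats. ATP: Km app for CSF1R Z'LYTE; 10 for CAMK1 Adapta. Readout = % per kinase.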
For orientation: Time-resolved FRET reads energy transfer from a long-lived donor to a nearby acceptor.

T1 sequence (O94768 whole entry): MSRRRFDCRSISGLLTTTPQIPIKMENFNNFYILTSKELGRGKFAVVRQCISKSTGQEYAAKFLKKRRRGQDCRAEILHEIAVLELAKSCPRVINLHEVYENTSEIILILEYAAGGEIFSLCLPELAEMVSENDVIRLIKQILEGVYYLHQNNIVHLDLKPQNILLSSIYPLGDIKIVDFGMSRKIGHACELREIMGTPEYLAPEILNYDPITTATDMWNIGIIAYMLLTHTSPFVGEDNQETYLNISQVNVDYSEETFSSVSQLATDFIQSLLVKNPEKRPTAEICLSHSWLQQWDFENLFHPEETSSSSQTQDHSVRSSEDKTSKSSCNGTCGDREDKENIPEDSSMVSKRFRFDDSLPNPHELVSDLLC

Take `CN(C(=O)CN1CCOCC1)c1ccc2sc3c(-c4cccc5c(=O)cc(N6CC7CCC(C6)O7)oc45)cccc3c2c1` [NU5455]: the inhibition at 1 µM worked out at 2.7%.
